The source of these data is a melting point compilation (Tetko et al.; mined from patent text by program, amines drawn as free bases though some values may be those of a salt).

The term melting point denotes the temperature of the solid-liquid transition. For `Cc1nc(N2CCN(Cc3ccc4nonc4c3)C2=O)sc1C(=O)NCc1cccnc1`, the melting point lay within 110 to 112 °C. In turn, `CN(C)c1ccc2c(c1Br)C(=O)C1(CC1)O2` displayed a melting point of 79 to 81 °C. As to `CC1CC(=O)NN=C1c1ccc(NC(=NC#N)NCc2ccccn2)cc1` (stereo not given), the melting point was in the range of 212 to 214 °C. With `CCCc1c(OCCCSc2ccc(C(=O)CCC(=O)O)cc2F)ccc(C(C)=O)c1O`, the melting point fell in the range of 115 to 116 °C. `CC1=N[C@H](c2ccccc2)COC1=O` gave a melting point of 71 to 72 °C. `CCOC(=O)c1cc(I)c(F)c(F)c1F` showed a melting point of 33 to 34 °C. The same measure for `CCn1ncc2c(NCC34CC5CC(CC(C5)C3)C4)c3ccccc3nc21`: 310 °C; for `CC(=O)N1CCC(CCC(=O)c2ccc3c(c2)CCO3)CC1`: 93 to 95 °C; for `N#CC1=C(N)CCN(C(=O)c2ccccc2)C1`: 178 to 181 °C. `N#Cc1cc(Br)c(C(=O)CCl)s1` displayed a melting point of 126 to 128 °C.

Take `CCOCCc1cc(OC)c(-c2ccc(C[C@H](NC(=O)c3c(F)cccc3F)C(=O)O)cc2)c(OC)c1`: the melting point was 63 to 70 °C. Compound `CCCc1c(OCCCOc2cc(NC(=O)C(=O)O)c(C)cc2Br)ccc(C(C)=O)c1O` had a melting point of 101 to 103 °C.

The compound `O=[N+]([O-])c1nc(NCCO)ccc1NCCO` returned a melting point of 158 °C. Compound `CCn1cc(C(=O)O)c(=O)c2cnc(N3CCN(Cc4ccc(OC)cc4)CC3)nc21` registered a melting point of 136 °C. The compound `NS(=O)(=O)Oc1cc(Cl)cc(Cl)c1` came in with a melting point of 146 to 147 °C. For `COC(COC(=O)C1=C(C)NC2=C(C(=O)CN(Cc3ccccc3)C2)C1c1c(F)c(F)c(F)c(F)c1F)c1ccccc1` (stereo not given), the melting point lay within 220 to 222 °C. The figure for `Cc1coc(N2CCCC2=O)n1` is 116 °C; for `CCCCNC(=O)[C@@H]1C[C@]2(NC(=O)N(CCCCl)C2=O)c2cc(F)ccc2O1` it is 148 to 150 °C; for `CC(C)CNS(=O)(=O)c1ccc(N)c(C(=O)N2CCN(C)CC2)c1` it is 162 to 163 °C. `CCC(=Cc1ccccc1)C(=O)O` yielded a melting point of 104 to 105 °C. `CCCCCCCCCCCCCCOc1ccc2cc(C(=O)O)oc2c1`: the melting point lay within 131 to 135 °C. The same measure for `CC(C)NC1=NS(=O)(=O)c2sc(Br)c(Br)c2N1`: 250 to 251 °C; for `CCOC(=O)C(=CNc1ccc(CO)cc1I)C(=O)OCC`: 152 to 154 °C. In turn, `CCOC(Cc1ccc(OCCn2c(CC)nc(-c3ccccc3)cc2=O)cc1)C(=O)O` (stereo not given) gave a melting point of 140 to 142 °C. The compound `N#CCCNC(=O)C1=CC(CF)(CF)Oc2ccc(C(F)(F)C(F)(F)C(F)(F)C(F)(F)F)cc21` registered a melting point of 85 to 86 °C. `Nn1cccc1C(=O)C(F)(F)F` came in with a melting point of 33 to 35 °C. Compound `Cc1cc(-c2ccc(C(F)(F)F)cc2)cc(-c2cccc(-c3cccc(S(N)(=O)=O)c3)n2)n1` showed a melting point of 250 °C.

On to `CCOC(=O)c1cnn(-c2c(Cl)cc(Cl)cc2Cl)c1O`, for which the melting point is 228 °C.

As to `CCOC(=O)c1cn(C)c2cc(CC)ccc2c1=O`, the melting point fell in the range of 92 to 94 °C. Take `O=c1[nH]c2ccccc2n1CCCN1CCN(C(c2ccccc2)c2ccccn2)CC1` (stereo not given): the melting point was found to be 142 °C. The figure for `Oc1ccc(SC2CC3CC(Sc4ccc(O)cc4)C2C3)cc1` (stereo not given) is 142 to 146 °C; for `COC1CC(OCc2ccccc2)C(OS(=O)(=O)c2ccc(C)cc2)C(CO)O1` (stereo not given) it is 100 to 101 °C; for `COC(CNc1ccc(C(O)(C(F)(F)F)C(F)(F)F)cc1)OC` it is 72 to 74 °C. In turn, `O=C(c1[nH]c2ccccc2c1Sc1ccccn1)N1CCCC1` displayed a melting point of 211 to 213 °C. Compound `COc1cccc(COCCCn2ccnc2)c1NC(=O)CC1c2ccccc2Oc2ccccc21` came in with a melting point of 155 to 156 °C. Compound `CC1(C)COP(N(CCCN(C2CC(C)(C)NC(C)(C)C2)P2OCC(C)(C)CO2)C2CC(C)(C)NC(C)(C)C2)OC1` gave a melting point of 102 °C. The compound `O=C(O)COc1c(Br)cc(-c2c3ccccc3c(Br)c3oc4ccccc4c23)c(O)c1Br` yielded a melting point of 194 to 240 °C. In the case of `Cc1cccc(NC(=O)NC(C(=O)N(CC(=O)OC(C)(C)C)c2ccccc2)c2ccccc2)c1` (racemic), the melting point came out at 178 °C. `OCc1cncn1C1CCCCC1` had a melting point of 133 to 134 °C. With `CN(C)C=CC(=O)c1cc(Cl)cc(Cl)c1`, the melting point is 100 °C. As to `Cc1nnc2c3c(c(NCCN4CCCC4)nn12)CCCC3`, the melting point fell in the range of 184 to 186 °C. In turn, `Nc1nc2c(ncn2C(c2ccccc2)(c2ccccc2)c2ccccc2)c(=O)[nH]1` had a melting point of 268 to 270 °C. In the case of `O=C1NC(=S)SC1=Cc1c(F)c(F)c(F)c(F)c1F`, the melting point lay within 132 to 135 °C.

Turning to `Cn1ncnc1COc1nc2c(cc1-c1ccccc1)nnn2-c1ccccc1`, the melting point was 153 to 156 °C. As to `CCn1ncc2c1ncc1c(NC)nc3cc(C)nn3c12`, the melting point lay in the range of 254 to 255 °C. The figure for `COc1ccc(C2(C#N)CCC(=O)C(C(N)=O)C2)cc1OCC1CC1` (stereo not given) is 154 to 155 °C; for `CO/C=C(/C(=O)OC)c1ccccc1C=CCO` it is 78 to 80 °C. The figure for `COCCOc1ccc(C#CC2(O)CN3CCC2CC3)cc1Cl` (stereo not given) is 138 to 139 °C.

`CCCc1c(OCc2nnn[nH]2)ccc(C(=O)c2ccccc2O)c1O` had a melting point of 186 to 187 °C.

The compound `CCS(=O)(=O)N[C@H]1CC[C@H](CCN2CCN(c3nccc4c3OCC4)CC2)CC1` returned a melting point of 190 °C. On to `O=c1nc(-c2ccc3c(c2)OCO3)c2cc3c(cc2n1CC1CC1)OCO3`, for which the melting point was in the range of 255 to 260 °C. Compound `CCOC(=O)C(C#N)=NOC(=O)OCC(C)C` gave a melting point of 60 to 62 °C. In turn, `COc1ccc(C=CC(=O)c2c(O)cc(OC)cc2OC(C)C)cc1` had a melting point of 113 °C. For the compound `COC(=O)c1ccc(C(=O)Nc2cc3c4c(c2)CCCC4(C)CCC3)s1`, the melting point was determined as 212 °C. In turn, `Cc1cc(C)c2cccc(OCc3c(Cl)ccc(S(=O)(=O)N4CCC[C@H]4C(=O)N4CCCNCC4)c3Cl)c2n1` yielded a melting point of 65 °C. The figure for `C[C@@]1(CBr)OC(=O)[C@H]2CCCN2C1=O` is 107 to 109 °C. In the case of `O=C(O)c1cc(S(=O)(=O)NC2CCCCC2)cc2c1OCCO2`, the melting point was 150 °C. Take `CC(=O)N[C@@H](CSC(=O)C(C)(C)C)C(=O)NCCSC(C)=O`: the melting point fell in the range of 92 to 94 °C. Turning to `Cc1[nH]cnc1CCNC(=NCCCOc1cccc(CN2CCCCC2)c1)NC(=O)c1ccccc1`, the melting point fell in the range of 118 to 120 °C. `Clc1ccc(-c2cncn3cnnc23)cc1` yielded a melting point of 193 to 195 °C. The same measure for `CCc1ccnc2cc(OC)c(OCc3ccccc3)cc12`: 132 to 134 °C; for `COC1=NS(=O)(=O)N(C)C(Cl)=N1`: 77 to 83 °C. `COc1cc(NC(=O)c2ccccc2)c(=O)[nH]c1C` registered a melting point of 247 to 248 °C. The same measure for `N#Cc1ccc2nc(-c3cccc(Br)c3)cn2c1`: 205 to 206 °C; for `CC(=O)OC1C=CC2(C)C(=CCC3C2CCC2(C)C3CCC23OCCO3)C1` (stereo not given): 105 to 106 °C.
